Assays:
[1] = Hydrodynamic size and size distribution of nanoprodrugs by dynamic light scattering; type: physicochemical
Method: Briefly, 25 mg of the compounds were dissolved in acetone (5 ml) containing polysorbate 80 (0.1% w/v). […] Following 15 min of magnetic stirring, the acetone was removed under reduced pressure at room temperature.
The hydrodynamic size measurement and size distribution of the nanoprodrugs were performed by the dynamic light scattering (DLS) using a Coulter N4-Plus Submicron Particle Sizer (Coulter Corporation, Miami, Fla., USA). The nanoprodrugs were diluted in deionized water and the analysis was performed at a scattering angle of 90° and at a temperature of 25° C. Three separate preparations were analyzed for each nanoprodrug. For each preparation mean diameter and mean polydispersity index (P.I.) of three determinations were calculated. The mean diameter±standard deviation (S.D.) and P.I.±S.D. were calculated from the three mean diameters and mean P.I.'s of the three separate preparations.

Esterase (porcine liver) = test: Enzymatic destabilization / hydrolysis of nanoprodrugs by esterase; type: in vitro ADME; details: esterase 5 U/ml; for Parent drugs hydrolyzed / released from the nanoprodrugs after 1 h incubation / Concentration of the released drugs / Drug release: nanoprodrug 500 μM; for Concentration of the released drugs / Drug release: 60 min, room temperature, PBS pH 7.4; for Concentrations of the released drugs after 12 h incubation: compared with ALA-TEG-Npx and ALA-TEG-Ibu after 1 h
Method: Esterase (porcine liver, Sigma, code E3019) was added to the final concentration of 5 U/ml. For the nanoprodrugs from the three bifunctional prodrugs, ALA-TEG-Ibu, ALA-TEG-Npx and ALA-TEG-Ind, the reduction in turbidity was monitored using ultraviolet/visible spectrometer (Bio-Rad SmartSpec™ 3000) for 60 min at room temperature with a wavelength λ=500 nm and 1 min acquisition interval. For the nanoprodrugs from the three dimeric prodrugs, Ibu2TEG, Npx2TEG and Ind2TEG, the samples were taken during the incubation for 12 h at room temperature with appropriate time interval and the reduction in turbidity was measured.
To determine the amount of enzymatically hydrolyzed NSAIDs, samples were centrifuged for 10 min at 20,000×g and the supernatants were analyzed by RP-HPLC using a C18 reversed phase column (Section 2.5).
The concentration of the NSAIDs was determined using calibration curves generated in the concentration range of 25-500 μM. Error bar represents±S.D. calculated from triplicate determinations. The stability of the nanoprodrugs under the experimental conditions in the absence of esterase was evaluated as follows. The purified nanoprodrugs were suspended in PBS (pH 7.4) and incubated for 12 h at room temperature. The amount of the intact prodrugs was determined using RP-HPLC as described above.

esterase [2] = test: Recovery of NSAIDs from oxidized nanoprodrugs (esterase hydrolysis); type: in vitro ADME, porcine; details: 250 μM, HOCl 500 μM 2 min, esterase 2 U/ml, overnight 37° C.
Method: The recovery yield of NSAIDs was determined for oxidized and non-oxidized nanoprodrugs. The nanoprodrugs prepared from ALA-TEG-Ibu, ALA-TEG-Npx and ALA-TEG-Ind (250 μM in PBS, pH 7.4) were incubated in the presence and absence of HOCl (500 μM) for 2 min. Esterase (2 U/ml) was added and mixed by pipetting up and down. In order to determine the total amount of available NSAIDs from the oxidized and non-oxidized nanoprodrugs, the hydrolysis was carried out overnight at 37° C. The reaction mixture was centrifuged for 10 min at 20,000×g and the hydrolyzed NSAIDs in the supernatant were quantified using RP-HPLC. Error bar represents±S.D. calculated from triplicate determinations.

esterase [3] = test: Effect of nanoprodrug oxidation on the rate of enzymatic hydrolysis; type: in vitro ADME, porcine; details: determined immediately after addition of esterase 2 U/ml; HOCl 500 μM 2 min
Method: In order to evaluate the effect of prodrug oxidation on the rate of enzymatic hydrolysis, the initial hydrolysis rate of NSAIDs from the oxidized and non-oxidized nanoprodrugs was determined. The nanoprodrugs prepared from ALA-TEG-Ibu, ALA-TEG-Npx and ALA-TEG-Ind (250 μM in PBS, pH 7.4) were incubated in the absence and presence of HOCl (500 μM) for 2 min. Esterase (2 U/ml) was added and mixed by pipetting up and down. The reaction mixture was centrifuged immediately after addition of esterase and the supernatant was quickly transferred into a new tube and incubated further to complete hydrolysis. The hydrolyzed NSAIDs in the supernatant were quantified using RP-HPLC as described above. Error bar represents±S.D. calculated from triplicate determinations.
To evaluate the sequence of hydrolysis after oxidation, the nanoprodrugs were incubated in presence of HOCl (500 μM) for 2 min and esterase (2 U/ml) was added. The reaction mixture was mixed by pipetting up and down and immediately centrifuged for 10 min at 20,000×g. The supernatant was analyzed using RP-HPLC as described above.

[4] = Oxidative destabilization of nanoprodrugs (turbidity at 500 nm after HOCl); details: nanoprodrug 250 μM, HOCl 25-1000 μM
Method: The nanoprodrugs were purified by centrifuging three times at 20,000×g for 10 min at 25° C. and resuspending each time in the same volume of deionized water. The purified nanoprodrugs were resuspended in phosphate buffered saline (PBS, pH 7.4) to give the final concentration of 250 μM NSAID derivatives. The concentration of HOCl in the diluted commercial sodium hypochlorite solution was determined spectrophotometrically (ε292=350 M^−1 cm^−1) (Morris, 1966). HOCl was added to the suspension of nanoprodrugs to give the final concentration of 25-1000 μM and the reduction in turbidity was measured immediately using ultraviolet/visible spectrometer (Bio-Rad SmartSpec™ 3000, Hercules, Calif., USA) at room temperature with a wavelength λ=500 nm.

[5] = system: U87-MG human glioma cell line; details: nanoprodrug 10 to 100 μM, 3 days
Method: The cells were grown and maintained in Minimum Essential Medium (MEM) (Invitrogen) containing antibiotics 100 U/mL penicillin (Invitrogen) and 100 μg/mL streptomycin (Invitrogen), and supplemented with 10% fetal bovine serum (FBS) (Invitrogen). Cells were kept at 37° C. in a humidified atmosphere including 5% CO2.
Nanoprodrugs were prepared from the monomeric derivative Ibu2TEG (25 mg) as described in Example 6 and dialyzed in phosphate buffered saline (PBS) over night. The human glioma cells (U87-MG) were seeded in a 25 cm^2 flask at 2.5×10^5 cells/5 mL and allowed to grow for 24 h. The medium was changed and the cells were treated with nanoprodrugs at final concentration ranging from 10 to 100 μM for the monomeric derivative Ibu2TEG. After a 3-day treatment, the medium was remove, cells were washed with PBS and 1 mL of 0.25% trypsin/EDTA (Gibco) was added to detach the cells. […] Control culture was treated with PBS.

[6] = system: human glioma cells (U87-MG); test: WST-1 cell viability assay, glioma cells; type: cell-based; details: free ibuprofen up to 600 μM, 72 h
Method: Growth inhibition was evaluated by the WST-1 (water-soluble tetrazolium salt) colorimetric assay (Boehringer Mannheim) according to the manufacturer's instructions. […] Cells were incubated at 37° C. for 1-4 h, and the absorbance was read by an ELISA plate reader at 450 nm. The cell viability was calculated as follows: Cell viability (%)=(Abss/Absc)×100, where Abss is the absorbance of cells treated with drugs and Absc is the absorbance of control cells incubated with cell culture medium only (See FIG. 9.).

[7] = system: human glioma cells (U87-MG); test: Cell death by propidium iodide uptake; type: cell-based; details: 200 μM of ibuprofen in DMSO, 72 h
Method: The human glioma cells (U87-MG) were seeded at 1×10^5 cells per well in 6-well plates, and allowed to grow for 24 h. The medium was changed and the cells were treated with 50 or 100 μM of nanoprodrug of Ibu2TEG or 200 μM of ibuprofen dissolved in DMSO for 72 h. Control cultures were treated with DMSO or cell culture medium only. After the end of treatment, glioma cells were incubated with 5 μM of propidium iodide (Sigma) for 1 h. Propidium iodide fluorescence was excited at 515-560 nm using an inverted microscope fitted with a standard rhodamine filter.

[8] = another NSAID nanosphere, Table 2C
[9] = hydrodynamic size of additional nanospheres, Table 2B
[10] = polydispersity index of additional nanospheres, Table 2B
[11] = nanoprodrugs of the derivative, Table 2A, n = 3, ±S.D., DLS 25° C.
[12] = polydispersity index of nanoprodrugs, Table 2A, n = 3, ±S.D.

Structure (SMILES)	Size (nm) [1, 9] [nm]	P.I. [1, 10]	Size (nm) [1, 11] [nm]	P.I. [1, 12]	further results
O=C(OCCOCCOCCOCCOC(=O)c1ccccc1Nc1cccc(C(F)(F)F)c1)c1ccccc1Nc1cccc(C(F)(F)F)c1 [(FA)2TEG, Tetraethylene glycol(flufenamic acid)2]					P.I. [1, 8]: 0.11; Size (nm) [1, 8]: 118 ± 32 nm
CC(C)Cc1ccc(C(C)C(=O)OCCOCCOC(=O)CCCCC2CCSS2)cc1 (stereo not drawn) [ALA-DEG-Ibu, (α-Lipoic acid)-diethylene glycol(ibuprofen)]	210 ± 53	0.09			
COc1ccc2cc([C@H](C)C(=O)OCCOCCOC(=O)CCCCC3CCSS3)ccc2c1 (stereo partly drawn) [ALA-DEG-Npx, (α-Lipoic acid)-diethylene glycol(naproxen)]	274 ± 56	0.05			
O=C(CCCCC1CCSS1)OCCOCCOCCOCCOC(=O)c1ccccc1Nc1cccc(C(F)(F)F)c1 (stereo not drawn) [ALA-TEG-FA, (α-Lipoic acid)-tetraethylene glycol(flufenamic acid)]	149 ± 36	0.08			
CC(C)Cc1ccc(C(C)C(=O)OCCOCCOCCOCCOC(=O)CCCCC2CCSS2)cc1 (stereo not drawn) [ALA-TEG-Ibu]			251 ± 13	0.10 ± 0.03	Parent drugs hydrolyzed / released from the nanoprodrugs after 1 h incubation (Esterase (porcine liver)): approximately 90%; Concentration of the released drugs (Esterase (porcine liver)): 417 µM; Drug release (Esterase (porcine liver)): 83%; Released parent drugs from the oxidized nanoprodrugs in comparison with non-oxidized controls (esterase [2]): 80%; Increase of the amount of hydrolyzed drugs from oxidized vs non-oxidized nanoprodrugs (esterase [3]): approximately two
CC(C)Cc1ccc(C(C)C(=O)OCCOCCOCCOCCOC(=O)C(C)c2ccc(CC(C)C)cc2)cc1 (stereo not drawn) [Ibu2TEG, Tetraethylene glycol(ibuprofen)2]			186 ± 11	0.13 ± 0.02	Concentrations of the released drugs after 12 h incubation (Esterase (porcine liver)): comparable; Cell number compared to the control culture [5]: significant decrease in cell number
CC(C)Cc1ccc(C(C)C(=O)O)cc1 (stereo not drawn) [ibuprofen]					Effect on cell viability [6]: did not show any significant effect; Propidium iodide incorporation (cell death) [7]: no significant propidium iodide incorporation

Continued, in another order:

Size (nm) [1, 9] [nm]	P.I. [1, 10]	Size (nm) [1, 11] [nm]	P.I. [1, 12]	Structure (SMILES)	further results
187 ± 54	0.13			COc1ccc2c(c1)c(CC(=O)OCCOCCOC(=O)CCCCC1CCSS1)c(C)n2C(=O)c1ccc(Cl)cc1 (stereo not drawn) [ALA-DEG-IND, (α-Lipoic acid)-diethylene glycol(indomethacin)]	
		253 ± 25	0.09 ± 0.05	COc1ccc2c(c1)c(CC(=O)OCCOCCOCCOCCOC(=O)CCCCC1CCSS1)c(C)n2C(=O)c1ccc(Cl)cc1 (stereo not drawn) [ALA-TEG-Ind]	Induction phase of oxidative destabilization [4]: longest induction phase
		298 ± 6	0.05 ± 0.01	COc1ccc2cc([C@H](C)C(=O)OCCOCCOCCOCCOC(=O)CCCCC3CCSS3)ccc2c1 (stereo partly drawn) [ALA-TEG-Npx]	Induction phase of oxidative destabilization [4]: less apparent; Parent drugs hydrolyzed / released from the nanoprodrugs after 1 h incubation (Esterase (porcine liver)): approximately 90%; Concentration of the released drugs (Esterase (porcine liver)): 454 µM; Drug release (Esterase (porcine liver)): 91%; Released parent drugs from the oxidized nanoprodrugs in comparison with non-oxidized controls (esterase [2]): 87%; Increase of the amount of hydrolyzed drugs from oxidized vs non-oxidized nanoprodrugs (esterase [3]): three
		159 ± 10	0.06 ± 0.03	COc1ccc2c(c1)c(CC(=O)OCCOCCOCCOCCOC(=O)Cc1c(C)n(C(=O)c3ccc(Cl)cc3)c3ccc(OC)cc13)c(C)n2C(=O)c1ccc(Cl)cc1 [Ind2TEG]	
		259 ± 9	0.06 ± 0.02	COc1ccc2cc(C(C)C(=O)OCCOCCOCCOCCOC(=O)C(C)c3ccc4cc(OC)ccc4c3)ccc2c1 (stereo not drawn) [Npx2TEG]	Concentrations of the released drugs after 12 h incubation (Esterase (porcine liver)): comparable

Reference: patent US8603531B2, “Nanometer-sized prodrugs of NSAIDs” (Cedars-Sinai Medical Center, priority 2008, dated 2013)
